Data taken from US8841321B2, “Quinoline derivatives as antibacterial agents” (Janssen Pharmaceutica NV, priority 2005, dated 2014).
Values after ≈ are worked out from the molar mass of the structure shown.

Tests used:
Assay in all cases: Microtitre plate assay, IC90 determination
Format in all cases: cell-based
[1] = system: STA 29213 (Staphylococcus aureus (ATCC29213)); details: for IC90 (μg/ml) STA 29213: Staphylococcus aureus (ATCC29213); for IC90: Staphylococcus aureus, ATCC29213, Staphylococcus aureus (ATCC29213), read-out: IC90 (μg/ml) STA 29213
Method: (§1) The bacteria used in this study were grown overnight in flasks containing 100 ml Mueller-Hinton Broth (Becton Dickinson—cat. no. 275730) in sterile de-ionized water, with shaking, at 37° C. Stocks (0.5 ml/tube) were stored at −70° C. until use. Bacteria titrations were performed in microtiter plates and colony forming units (CFUs) were determined. In general, an inoculum level of approximately 100 CFUs was used for susceptibility testing.
(§2) Flat-bottom, sterile 96-well plastic microtiter plates were filled with 180 μl of sterile deionized water, supplemented with 0.25% BSA. Subsequently, stock solutions (7.8× final test concentration) of compounds were added in 45 μl volumes in column 2. Serial five-fold dilutions (45 μl in 180 μl) were made directly in the microtiter plates from column 2 to reach column 11. Untreated control samples with (column 1) and without (column 12) inoculum were included in each microtiter plate. Depending on the bacteria type, approximately 10 to 60 CFU per well of bacteria inoculum (100 TCID50), in a volume of 100 μl in 2.8× Mueller-Hinton broth medium, was added to the rows A to H, except column 12. The same volume of broth medium without inoculum was added to column 12 in row A to H. The cultures were incubated at 37° C. for 24 hours under a normal atmosphere (incubator with open air valve and continuous ventilation). At the end of incubation, one day after inoculation, the bacterial growth was quantitated fluorometrically. Therefore resazurin (0.6 mg/ml) was added in a volume of 20 μl to all wells 3 hours after inoculation, and the plates were re-incubated overnight. A change in colour from blue to pink indicated the growth of bacteria. The fluorescence was read in a computer-controlled fluorometer (Cytofluor Biosearch) at an excitation wavelength of 530 nm and an emission wavelength of 590 nm. The % growth inhibition achieved by the compounds was calculated according to standard methods. The IC90 (expressed in μg/ml) was defined as the 90% inhibitory concentration for bacterial growth.

[2] = system: SPN 6305 (Streptococcus pneumoniae (ATCC6305)); details: for IC90 (μg/ml) SPN 6305: Streptococcus pneumoniae (ATCC6305); for IC90: Streptococcus pneumoniae, ATCC6305, Streptococcus pneumoniae (ATCC6305), read-out: IC90 (μg/ml) SPN 6305
Method: as §1, §2

[3] = system: STA RMETH (methicilline resistant Staphylococcus aureus (MRSA), a clinical isolate from the University of Antwerp)

Compound	IC90 [1] [µg/mL]	IC90 [2] [µg/mL]	IC90 (μg/ml) STA 29213 [1] [µg/mL]	IC90 (μg/ml) SPN 6305 [2] [µg/mL]	IC90 (μg/ml) STA RMETH [3] [µg/mL]
COc1nc2c(C)c(Br)ccc2cc1C(c1ccccc1)C(O)(CCCCN(C)C)c1ccc2ccccc2c1 (racemic) [Compound 80]			1.89 (≈ 3.16 µM)	2.12 (≈ 3.55 µM)	2.38 (≈ 3.98 µM)
COc1nc2ccc(-c3ccco3)cc2cc1C(c1ccccc1)C(O)(CCCCN(C)C)c1ccccc1 (racemic) [Compound 82]			1.65 (≈ 3.17 µM)	1.65 (≈ 3.17 µM)	10.39 (≈ 20 µM)
COc1nc2ccc(-c3ccco3)cc2cc1C(c1ccccc1)C(O)(CCCCN(C)C)c1ccccc1 (racemic) [Compound 83]			1.65 (≈ 3.17 µM)	1.65 (≈ 3.17 µM)	5.21 (≈ 10 µM)
COc1nc2ccc(Br)cc2cc1C(c1ccccc1)C(O)(CCCCN(C)C)c1cccc(F)c1 (racemic) [Compound 84]			1.74 (≈ 3.16 µM)	9.81 (≈ 17.8 µM)	11 (≈ 19.9 µM)
CCN(CC)CCCCC(O)(c1ccc2ccccc2c1)C(c1ccccc1)c1cc2cc(Br)ccc2nc1OC (racemic) [Compound 85]			1.93 (≈ 3.16 µM)	1.93 (≈ 3.16 µM)	12.2 (≈ 19.9 µM)
CCN(CC)CCCCC(O)(c1ccc2ccccc2c1)C(c1ccccc1)c1cc2cc(Br)ccc2nc1OC (racemic) [Compound 86]			2.17 (≈ 3.55 µM)	2.43 (≈ 3.97 µM)	2.17 (≈ 3.55 µM)
CSc1nc2ccc(Br)cc2cc1C(c1ccccc1)C(O)(CCCCN(C)C)c1ccc2c(c1)OCO2 (racemic) [Compound 87]			1.88 (≈ 3.17 µM)	2.36 (≈ 3.98 µM)	2.36 (≈ 3.98 µM)
COc1nc2ccc(Br)cc2cc1C(c1ccccc1)C(O)(CCCCN1CCCCC1)c1ccc2ccccc2c1 (racemic) [Compound 96]			4.42 (≈ 7.09 µM)	2.21 (≈ 3.54 µM)	9.88 (≈ 15.8 µM)
COc1nc2ccc(Br)cc2cc1C(c1ccccc1)C(O)(CCCCN1CCNCC1)c1ccccc1 (racemic) [Compound 104]			1.82 (≈ 3.17 µM)	2.04 (≈ 3.55 µM)	12.86 (≈ 22.4 µM)
COc1nc2ccc(Br)cc2cc1C(c1ccccc1)C(O)(CCCCN1CCNCC1)c1ccccc1 (racemic) [Compound 105]			2.04 (≈ 3.55 µM)	2.29 (≈ 3.99 µM)	11.46 (≈ 19.9 µM)
COc1nc2ccc(Br)cc2cc1C(c1ccccc1)C(O)(CCCCN1CCCCC1)CC(C)C (racemic) [Compound 122]			1.75 (≈ 3.16 µM)	1.96 (≈ 3.54 µM)	11.05 (≈ 20 µM)
COc1nc2ccc(Br)cc2cc1C(c1ccccc1)C(O)(CCCCN(C)C(C)C)c1ccccc1 (single isomer, unassigned) [Compound 91]			2.24 (≈ 3.99 µM)	2.51 (≈ 4.47 µM)	12.57 (≈ 22.4 µM)
COc1nc2ccc(Br)cc2cc1C(c1ccccc1)C(O)(CCCCN1CCN(C)CC1)CCC1CCCCC1 (single isomer, unassigned) [Compound 126]			4.41 (≈ 7.08 µM)	2.21 (≈ 3.55 µM)	5.55 (≈ 8.91 µM)
COc1nc2ccc(Br)cc2cc1C(c1ccccc1)C(O)(CCCCN(C)C)CCc1ccccc1 (single isomer, unassigned) [Compound 131]			1.78 (≈ 3.17 µM)	2.24 (≈ 3.99 µM)	11.2 (≈ 19.9 µM)
CCN(CC)CCCCC(O)(CCc1ccccc1)C(c1ccccc1)c1cc2cc(Br)ccc2nc1OC (single isomer, unassigned) [Compound 132]			2.09 (≈ 3.54 µM)	2.09 (≈ 3.54 µM)	11.76 (≈ 19.9 µM)
COc1nc2ccc(Br)cc2cc1C(c1ccccc1)C(O)(CCCCN1CCCCC1)CCc1ccccc1.Cl (single isomer, unassigned) [Compound 133]			1.9	2.13	12

Compound	IC90 [1] [µg/mL]	IC90 [2] [µg/mL]	IC90 (μg/ml) STA 29213 [1] [µg/mL]	IC90 (μg/ml) SPN 6305 [2] [µg/mL]	IC90 (μg/ml) STA RMETH [3] [µg/mL]
COc1nc2ccc(Br)cc2cc1C(c1ccccc1)C(O)(CCCCN1CCCCC1)CCc1ccccc1 (single isomer, unassigned) [Compound 134]			4.26 (≈ 7.08 µM)	2.13 (≈ 3.54 µM)	12 (≈ 19.9 µM)
COc1ccc(C(c2cc3cc(Br)ccc3nc2OC)C(O)(CCCCN2CCCCC2)c2ccccc2)cc1 (single isomer, unassigned) [Compound 165]			3.81 (≈ 6.31 µM)	1.91 (≈ 3.16 µM)	
COc1ccc(C(c2cc3cc(Br)ccc3nc2OC)C(O)(CCCCN2CCCCC2)c2ccccc2)cc1 (single isomer, unassigned) [Compound 166]			1.91 (≈ 3.16 µM)	1.91 (≈ 3.16 µM)	
COc1ccc(C(c2cc3cc(Br)ccc3nc2OC)C(O)(CCCCN2CCCCC2)c2ccc(C)cc2)cc1 (single isomer, unassigned) [Compound 167]			1.95 (≈ 3.16 µM)	2.19 (≈ 3.55 µM)	
COc1ccc(C(c2cc3cc(Br)ccc3nc2OC)C(O)(CCCCN2CCCCC2)c2ccc(OC)cc2)cc1 (single isomer, unassigned) [Compound 169]			4 (≈ 6.31 µM)	2.52 (≈ 3.98 µM)	
COc1nc2ccc(Br)cc2cc1C(c1ccc(Cl)cc1)C(O)(CCCCN1CCCCC1)c1ccc(C)cc1 (single isomer, unassigned) [Compound 171]			22.07 (≈ 35.5 µM)	4.94 (≈ 7.94 µM)	
COc1nc2ccc(Br)cc2cc1C(c1ccc(Cl)c(Cl)c1)C(O)(CCCCN1CCCCC1)c1ccccc1 (single isomer, unassigned) [Compound 172]			2.03 (≈ 3.16 µM)	2.28 (≈ 3.55 µM)	
COc1nc2ccc(Br)cc2cc1C(c1ccc(Cl)cc1)C(O)(CCCCN1CCN(C)CC1)CCC1CCCCC1 (single isomer, unassigned) [Compound 174]			10.41 (≈ 15.8 µM)	8.27 (≈ 12.6 µM)	
COc1nc2ccc(Br)cc2cc1C(c1ccccc1)C(O)(CCCCN(C)C)c1cc(F)cc(F)c1 (centres unmarked) [Compound 12]			45.2 (≈ 79.4 µM)	11.4 (≈ 20 µM)	
COc1nc2ccc(Br)cc2cc1C(c1ccccc1)C(O)(CCCCN(C)C)c1cccnc1 (centres unmarked) [Compound 16]			8.5 (≈ 15.9 µM)	8.5 (≈ 15.9 µM)	
COc1nc2ccc(Br)cc2cc1C(c1ccccc1)C(O)(CCCCCN(C)C)c1ccc2ccccc2c1 (centres unmarked) [Compound 58]			4.2 (≈ 7.03 µM)	1.9 (≈ 3.18 µM)	
COc1nc2ccccc2cc1C(c1ccc(Br)cc1)C(O)(CCCCN(C)C)c1ccc2ccccc2c1 (centres unmarked) [Compound 65]			1.85 (≈ 3.17 µM)	2.32 (≈ 3.98 µM)	
COc1nc2ccccc2cc1C(c1ccc(Br)cc1)C(O)(CCCCN(C)C)c1ccc2ccccc2c1 (centres unmarked) [Compound 66]			1.85 (≈ 3.17 µM)	1.85 (≈ 3.17 µM)	
COc1nc2ccccc2cc1C(c1ccc(-c2ccccc2)cc1)C(O)(CCCCN(C)C)c1ccc2ccccc2c1 (centres unmarked) [Compound 175]			1.84 (≈ 3.17 µM)	2.06 (≈ 3.55 µM)	
COc1nc2ccccc2cc1C(c1ccc(-c2ccccc2)cc1)C(O)(CCCCN(C)C)c1ccc2ccccc2c1 (centres unmarked) [Compound 176]			1.84 (≈ 3.17 µM)	2.06 (≈ 3.55 µM)	
CN(C)CCCCC(O)(c1ccc2ccccc2c1)C(c1ccccc1)c1cc2cc(Br)ccc2nc1N1CCOCC1 (centres unmarked) [Compound 177]			4.52 (≈ 7.08 µM)	4.52 (≈ 7.08 µM)	

The next lines start with results.

IC90 [1] [µg/mL]	IC90 [2] [µg/mL]	Compound	IC90 (μg/ml) STA 29213 [1] [µg/mL]	IC90 (μg/ml) SPN 6305 [2] [µg/mL]	IC90 (μg/ml) STA RMETH [3] [µg/mL]
11.5 (≈ 19.9 µM)	10.3 (≈ 17.8 µM)	COc1nc2ccc(Br)cc2cc1C(c1ccccc1)C(O)(CCCCN(C)C)c1ccc2c(c1)OCO2 (centres unmarked) [Compound 10]			
14.3 (≈ 25.1 µM)		COc1nc2ccc(Br)cc2cc1C(c1ccccc1)C(O)(CCCCN(C)C)c1cc(F)ccc1F (centres unmarked) [Compound 14]		57.0 (≈ 100 µM)	
1.85 (≈ 3.17 µM)	2.32 (≈ 3.98 µM)	COc1nc2ccccc2cc1C(c1ccc(Br)cc1)C(O)(CCCCN(C)C)c1ccc2ccccc2c1 (centres unmarked) [Compound 63]			
	2.27 (≈ 3.55 µM)	CN(C)CCCCC(O)(c1ccc2ccccc2c1)C(c1ccccc1)c1cc2cc(Br)ccc2nc1N1CCOCC1 (centres unmarked) [Compound 178]	2.02 (≈ 3.16 µM)		
